Source: US20130315920A1, “Cross Protective Epitopes of Aspergillus Fumigatus and Candida Albicans” (Cell Medica Limited, priority 2010, published 2013)

How the values were obtained:
[1] = test system: T-cell lines of 7 donors with different MHC class II alleles; assay: Epitope mapping of Crf1 peptides with IFN-γ ELISPOT; type: cell-based, human; details: 7 donors tested, peptide-pulsed autologous DC
Description: (§1) As the identification of potential protective fungal antigens is rather intricate due to the extensiveness of fungal genomes, we analyzed 6 different A. fumigatus recombinant proteins based on their previously reported immunogeneic reactivity in mice and humans^7,10. […] By contrast, GPI-anchored extracellular cell wall glucanase Crf1 and secreted protein peptidase induced high IFN-γ in 6 of 7 and 5 of 10 tested donors, respectively. The response was mediated by CD4^+ TH1 cells, as MHC class II blocking antibody nearly abrogated IFN-γ release (data not shown). Due to the broad response and the sequence similarity to the C. albicans orthologue Crh1, we focused in subsequent experiments on the protein Crf1. By epitope mapping of 7 healthy individuals with different MHC class II alleles, we identified 10 potential candidate epitopes (Table 1). Based on the results obtained by epitope mapping, the probability of antigen presentation by certain MHC class II alleles assessed by epitope prediction^11, previously reported immunogeneic reactivity^12 and sequence similarity to the C. albicans homologue Crh1, we then generated CD4^+ TH1 T-cell clones specific for the peptides p1, p22, p27, p41, p48, p59, p69 and p84 (FIG. 1a and Table 1).
A peptide library covering the complete Crf1 sequence consisting of 94 15-mer peptides overlapping by […] (aa) was divided into sub-pools of 10 peptides and 94 single peptides (p1-p94) (PANATecs). 3 11-mer peptides of p40/41 overlapping by 2aa ([…], […], HTYTIDWTKDA) were obtained from JPT Peptide Technologies.
(§2) For analysis of recombinant proteins and epitope mapping, T-cell lines were generated by incubation of 1×10^7 PBMC per well in 6-well cell culture plates with 5 μg/ml protein or peptide for 7d in the presence of 5 U/ml IL-2 (Proleukin, Chiron). Antigen specificity was analyzed by IFN-γ ELISA^42 after restimulation with autologous monocytes incubated overnight with 5 μg/ml protein in a responder to stimulator (R:S) ratio of 5:1. Epitope mapping was performed by IFN-γ ELISPOT^39 after stimulation with peptide-pulsed autologous DC at a R:S ratio of 10:1.

[2] = test system: DC transfected with Crf1 mRNA; assay: Peptide-specific T-cell clones stimulated with Crf1 mRNA-transfected DC (IFN-γ); type: cell-based, human; details: for Response of peptide-specific CD4+ T-cell clones to endogenously processed antigen: all donors
Protocol: (§3) T-cell cloning was performed as described in below. T-cell clones were stimulated either with mature peptide-pulsed (2.5 μg/ml) or Crf1 mRNA-transfected DC, immature DC incubated for 24 h with A. fumigatus cell extract (20 μg/ml) in the presence of cytokine maturation cocktail or immature DC incubated for 24 h with inactivated A. fumigatus or C. albicans fungus (multiplicity of infection 3) in a R:S ratio of 5:1.
For T-cell cloning 6×10^7 PBMC were stimulated overnight with 5 μg/ml peptide and 1 μg/ml CD40 antibody (HB14, Miltenyi Biotec). Cells were labelled with anti-CD154^+ microbeads and isolated by magnetic cell separation according to the manufacturers' instructions (Miltenyi Biotec). Selected cells were cultured with γ-irradiated autologous PBMC (ratio 1:50) and cytokines were supplemented as described above. On d14, T-cell clones were generated by limiting dilution in 96-well plates and expanded using the rapid expansion protocol previously described^50.
A. fumigatus Crf1 cDNA was cloned into the pGEM4Z vector (provided by Kris Thielemans) and in vitro transcribed using mMESSAGE mMACHINE T Ultra Kit (Ambion) according to the manufacturers' instructions. Crf1 was fused to the N-terminal domain of the invariant chain to enhance antigen presentation by MHC class II^51,52. Maturated DC were electroporated with 15 μg mRNA at 300V and 150 μF using the EQUIBIO EasyjecT Plus® apparatus (EQUIBIO) in serum-free medium (OptiMEM, Gibco)^41.

C. albicans = assay: Peptide-specific T-cell clones stimulated with inactivated C. albicans yeast; type: cell-based, Candida albicans; details: inactivated C. albicans yeast, established strain
Description: A. fumigatus Crf1 p41-specific T-cell clones are cross-reactive to C. albicans and can be activated by different clinical isolates of both fungi. (a) All A. fumigatus Crf1 p41-specific T-cell clones from different donors respond to stimulation with inactivated C. albicans yeast. IFN-γ values are given after subtraction of the negative control. Shown is 1 clone per antigen and donor (representative experiments, n≧3). (b) A. fumigatus Crf1 p41-specific T-cell clones respond to different inactivated clinical isolates of germinating A. fumigatus conidia and C. albicans yeast.
as §3
(§4) Fungal extracts were generated as described^48 and protein content was measured by Bradford protein assay (Perbio Science) according to the manufacturers' instructions. For inactivated fungus Aspergillus conidia were inoculated in growth medium^49 and cultured for 0, 4, 8 or 12 h. Candida species were cultured for 24 h. Fungi were inactivated with 70% ethanol. Ethanol-inactivated fungi and extracts were validated for sterility by subculturing on Sabouraud dextrose agar.

[3] = test system: A. flavus, A. nidulans, A. niger, A. terreus, C. glabrata and C. krusei; assay: Cross-reactivity of T-cell clones to other Aspergillus and Candida species; type: cell-based; details: data not shown
Description: We then analyzed if our T-cell clones might cross-react to other clinically relevant Aspergillus and Candida species such as A. flavus, A. nidulans, A. niger, A. terreus, C. glabrata and C. krusei because they also express proteins with some sequence similarity to A. fumigatus Crf1. […] Thus, p41-specific TH1 cells represent a core repertoire in antifungal immune responses being reactive to A. fumigatus but also to C. albicans, the second most important pathogenic fungus in HSCT patients.
Fungal strains A. fumigatus D141, A. nidulans FGSCA4, C. albicans SC5314 and clinical isolates A. fumigatus, A. terreus, A. flavus, A. niger, C. albicans, C. glabrata and C. krusei were provided by Sven Krappmann, Joachim Morschhäuser and Reno Frei.

[4] = test system: A. fumigatus cell extract; assay: Peptide-specific T-cell clones stimulated with DC incubated with A. fumigatus cell extract (IFN-γ); type: cell-based, Aspergillus fumigatus; details: extract 20 μg/ml, DC incubated 24 h
Protocol: as §3, §4

[5] = test system: T-cell lines from PBMC of healthy donors; assay: IFN-γ ELISA of T-cell lines stimulated with recombinant A. fumigatus proteins; type: cell-based, human; details: 5 μg/ml protein
Description: as §1
A. fumigatus superoxide dismutase^34, catalase^35, peptidase^36 and 1,3-beta-glucanosyl-transferase Gel1^30 were produced in the yeast Pichia pastoris as described^37. Extracellular cell wall glucanase Crf1^37 (cDNA provided by Utz Reichard) and the major allergen and cytotoxin AspF1^10 were expressed with FLAG-Tags in the human cell line phoenix GALV^38.
as §2

## AKGGTRFPQTPMRLR (peptide epitope of A. fumigatus Crf1) [p48, Crf1 aa 189-203]
[1]
  No. of responders: 3
[2]
  Response of peptide-specific CD4+ T-cell clones to endogenously processed antigen: None of the CD4^+ T-cell clones specific for the peptides p48, p69 and p84 responded to Crf1 mRNA-transfected DC
[2]; donor 3
  Number of T-cell clones reacting to Crf1 mRNA-transfected DC/number of peptide-specific T-cell clones: 0/7
[2]; donor 4
  Number of T-cell clones reacting to Crf1 mRNA-transfected DC/number of peptide-specific T-cell clones: 0/4
[2]; donor 11
  Number of T-cell clones reacting to Crf1 mRNA-transfected DC/number of peptide-specific T-cell clones: 0/5

## GSSNTGSGSGSGSGS (peptide epitope of A. fumigatus Crf1) [p84, Crf1 aa 333-347]
[1]
  No. of responders: 5
[2]
  Response of peptide-specific CD4+ T-cell clones to endogenously processed antigen: None of the CD4^+ T-cell clones specific for the peptides p48, p69 and p84 responded to Crf1 mRNA-transfected DC
[2]; donor 4
  Number of T-cell clones reacting to Crf1 mRNA-transfected DC/number of peptide-specific T-cell clones: 0/4
[2]; donor 11
  Number of T-cell clones reacting to Crf1 mRNA-transfected DC/number of peptide-specific T-cell clones: 0/5

## MYFKYTAAALAAVLP (peptide epitope of A. fumigatus Crf1) [p1, Crf1 aa 1-15]
C. albicans
  Cross-reactivity of peptide-specific T-cell clones to C. albicans: none of the Crf1 p1-, Cal p27- and Cal p59-specific T-cell clones could be activated
[1]
  No. of responders: 4
[3]
  Cross-reactivity to other Aspergillus and Candida species: weak cross-reactivity to A. flavus, A. nidulans and A. terreus
[2]
  Response of peptide-specific CD4+ T-cell clones to endogenously processed antigen: only some of the p1-, p22-, p27- and p59-specific CD4^+ T-cells clones responded to endogenously processed antigen
[2]; donor 5
  Number of T-cell clones reacting to Crf1 mRNA-transfected DC/number of peptide-specific T-cell clones: 3/3
[2]; donor 6
  Number of T-cell clones reacting to Crf1 mRNA-transfected DC/number of peptide-specific T-cell clones: 1/5
[2]; donor 7
  Number of T-cell clones reacting to Crf1 mRNA-transfected DC/number of peptide-specific T-cell clones: 0/6
[2]; donor 12
  Number of T-cell clones reacting to Crf1 mRNA-transfected DC/number of peptide-specific T-cell clones: 10/10
[4]
  Response of peptide-specific T-cell clones to A. fumigatus extract: most Crf1 p1-specific T-cell clones of 2 of 4 donors responded to A. fumigatus extract

## PPNKGLAASTYTADF (peptide epitope of A. fumigatus Crf1) [p9, Crf1 aa 33-47]
[1]
  No. of responders: 3

## SAGPYTMYVKSVRIE (peptide epitope of A. fumigatus Crf1) [p58, Crf1 aa 229-243]
[1]
  No. of responders: 3

## SSSSVTSSTTSTASS (peptide epitope of A. fumigatus Crf1) [p69, Crf1 aa 273-287]
[1]
  No. of responders: 3
[2]
  Response of peptide-specific CD4+ T-cell clones to endogenously processed antigen: None of the CD4^+ T-cell clones specific for the peptides p48, p69 and p84 responded to Crf1 mRNA-transfected DC
[2]; donor 1
  Number of T-cell clones reacting to Crf1 mRNA-transfected DC/number of peptide-specific T-cell clones: 0/3
[2]; donor 4
  Number of T-cell clones reacting to Crf1 mRNA-transfected DC/number of peptide-specific T-cell clones: 0/2

## TGSSTSAGASATPEL (peptide epitope of A. fumigatus Crf1) [p89, Crf1 aa 353-367]
[1]
  No. of responders: 4

## TRFPQTPMRLRLGSW (peptide epitope of A. fumigatus Crf1) [p49, Crf1 aa 193-207]
[1]
  No. of responders: 4

## YTMYVKSVRIENANP (11-mer peptide of p40/41) [p59, Crf1 aa 233-247]
C. albicans
  Cross-reactivity of peptide-specific T-cell clones to C. albicans: none of the Crf1 p1-, Cal p27- and Cal p59-specific T-cell clones could be activated
[1]
  No. of responders: 5
[3]
  Cross-reactivity to other Aspergillus and Candida species: none of the Crf1 p27-, p41- and p59-specific T-cell clones showed any cross-reactivity to these fungi
[2]
  Response of peptide-specific CD4+ T-cell clones to endogenously processed antigen: only some of the p1-, p22-, p27- and p59-specific CD4^+ T-cells clones responded to endogenously processed antigen
[2]; donor 5
  Number of T-cell clones reacting to Crf1 mRNA-transfected DC/number of peptide-specific T-cell clones: 1/3
[2]; donor 6
  Number of T-cell clones reacting to Crf1 mRNA-transfected DC/number of peptide-specific T-cell clones: 2/2
[2]; donor 12
  Number of T-cell clones reacting to Crf1 mRNA-transfected DC/number of peptide-specific T-cell clones: 1/7
[4]
  Response of peptide-specific T-cell clones to A. fumigatus extract: only very few T-cell clones specific for Cal p27 and Crf1 p59

## catalase
[5]
  IFN-γ response: only weak interferon-γ (IFN-γ) responses in some donors

## superoxide dismutase
[5]
  IFN-γ response: only weak interferon-γ (IFN-γ) responses in some donors

B1: AspF1: recombinant A. fumigatus major allergen and cytotoxin AspF1 (His136Leu) (protein)
chain: ATWTCINQQLNPKTNKWEDKRLLYSQAKAESNSHHAPLSDGKTGSSYPHWFTNGYDGNGKLIKGRTPIKFGKADCDRPPKHSQNGMGKDDHYLLEFPTFPDGHDYKFDSKKPKEDPGPARVIYTYPNKVFCGIVALQRGNQGDLRLCSH
[5]
  IFN-γ response: only weak interferon-γ (IFN-γ) responses in some donors
